From US8673957B2, “Fluorescent probe” (Tetsuo Nagano, priority 2003, dated 2014)

What was measured:
[1] = Reaction with nitrogen monoxide (NOC 13 as nitrogen monoxide generating agent), excitation/fluorescence spectra and HPLC; conditions: 1 hour, 0.1 M sodium phosphate buffer (pH 7.4)
Description: NOC 13, which is a nitrogen monoxide generating agent, was added to Compound (7), and changes of excitation and fluorescence emission spectra were measured. The compound (7) at 5 μM (cosolvent: 0.1% DMSO) and NOC 13 were incubated at 37° C. for 1 hour in 0.1 M sodium phosphate buffer (pH 7.4), and then excitation and fluorescence spectra were measured. The measurement was performed with slit widths of Ex/Em=2.5/2.5 nm, excitation wavelength of 520 nm, and emission wavelength of 535 nm.

[2] = Effect of pH on the fluorescence intensity; assay type: physicochemical; conditions: 0.1 M sodium phosphate buffer, 0.1% DMSO, pH range of from 3 to 13
Description: Compounds (7) and (8) were dissolved in 0.1 M sodium phosphate buffer (cosolvents 0.1% DMSO) adjusted to various pH values, and fluorescence was measured in the same manner as those in the aforementioned (b). […] Therefore, according to the measurement of nitrogen monoxide by using the compound of the present invention, extremely high accuracy of the measurement is achieved for a biosample with pH fluctuation.

[3] = Fluorescence spectrum: fluorescence characteristics and quantum yield; assay type: physicochemical; conditions: 0.1 M sodium phosphate buffer (pH 7.4), 20° C.
Description: The fluorescence characteristics of Compound (7) and Compound (8) were measured. The quantum yield was measured by using F-4500 (Hitachi), and the other spectra were measured by using LS50B (Perkin Elmer). The measurement was performed at 20° C. for a solution of a sample dissolved in 0.1 M sodium phosphate buffer (pH 7.4) using dimethyl sulfoxide of less than 0.2% as a cosolvent. The quantum yield was calculated relative to that of fluorescein, which was 0.85 in aqueous 0.1 M NaOH. When similar quantum yield measurements were performed for a compound of the formula (I) wherein R^6 and R^9 were hydrogen atoms (p-DAMBO) and a compound of the formula (II) wherein R^16 and R^19 were hydrogen atoms (p-DAMBO-T) as controls, the quantum yields were 0.001 and 0.40, respectively.

[4] = DMSO less than 0.2% as cosolvent

Emission maximum [3, 4] | Extinction coefficient [3, 4] | Extinction maximum [3, 4] | Relative quantum yield ([3]; relative to fluorescein (0.85 in aqueous 0.1 M NaOH)) | Structure (SMILES) | rate of reaction with nitrogen monoxide (HPLC of product) ([1]; compound at 5 μM with NOC 13, 37° C.) | change of fluorescence after addition of NOC 13 ([1]; compound at 5 μM, NOC 13 0-5.0 μM, 37° C., Ex 520 nm / Em 535 nm) | change in fluorescence intensity with pH [2]
 |  |  |  | CC1=C(CCC(=O)O)C(C)=[N+]2C1=C(c1ccc(N)c(N)c1)c1c(C)c(CCC(=O)O)c(C)n1[B-]2(F)F [Compound (7), 8-(3,4-Diaminophenyl)-2,6-bis(2-carboxyethyl)-4,4-difluoro-1,3,5,7-tetramethyl-4-bora-3a,4a-diaza-s-indacene] | extremely rapid reaction | Increase of fluorescence depending on the concentration of added NOC 13 | 
537 nm | 56000 M⁻¹ cm⁻¹ | 521 nm | 0.74 | CC1=C(CCC(=O)O)C(C)=[N+]2C1=C(c1ccc3[nH]nnc3c1)c1c(C)c(CCC(=O)O)c(C)n1[B-]2(F)F [Compound (8), 8-(5-Benzotriazolyl)-2,6-bis(2-carboxyethyl)-4,4-difluoro-1,3,5,7-tetramethyl-4-bora-3a,4a-diaza-s-indacene] |  |  | Almost no change in the fluorescence intensity
